Laboratory results published in the supplement of paper PMC10307832.

What was measured:
Assay in all cases: relative viability (nuclei count vs DMSO), 5 days (fraction); higher = more cells survive
DM3189 + Navitoclax = compound: C1CN(CCN1)C2=CC=C(C=C2)C3=CN4C(=C(C=N4)C5=CC=NC6=CC=CC=C56)N=C3 [DM3189] + CC1(C)CCC(c2ccc(Cl)cc2)=C(CN2CCN(c3ccc(C(=O)NS(=O)(=O)c4ccc(N[C@H](CCN5CCOCC5)CSc5ccccc5)c(S(=O)(=O)C(F)(F)F)c4)cc3)CC2)C1 [Navitoclax] (partner 0.5 µM)
Method in brief: (§1)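 A single step with final 0.05% Triton X-100, 1% formaldehyde and 1 ug/ml Hoechst fixed the cells and stained nuclei 5 days after treatment. Lung cancer cell lines in 1536-well plates had been treated by pin tool the day after seeding with one drug alone or a fixed anchor-drug dose plus five library-drug doses (not always all listed) in √10 steps, and nuclei were counted on 4× images. Relative viability is the ratio of nuclei in treated wells to nuclei in vehicle wells, taken as the median of duplicate plates.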

DM3189 + Tozasertib = compound: C1CN(CCN1)C2=CC=C(C=C2)C3=CN4C(=C(C=N4)C5=CC=NC6=CC=CC=C56)N=C3 [DM3189] + Cc1cc(Nc2cc(N3CCN(C)CC3)nc(Sc3ccc(NC(=O)C4CC4)cc3)n2)n[nH]1 [Tozasertib] (partner 0.1 µM)
Method in brief: as §1

DM3189 + OSI-027 = compound: C1CN(CCN1)C2=CC=C(C=C2)C3=CN4C(=C(C=N4)C5=CC=NC6=CC=CC=C56)N=C3 [DM3189] + COc1cccc2cc(-c3nc([C@H]4CC[C@H](C(=O)O)CC4)n4ncnc(N)c34)[nH]c12 [OSI-027] (partner 0.5 µM)
Method in brief: as §1

DM3189 + Trametinib = compound: C1CN(CCN1)C2=CC=C(C=C2)C3=CN4C(=C(C=N4)C5=CC=NC6=CC=CC=C56)N=C3 [DM3189] + CC(=O)Nc1cccc(-n2c(=O)n(C3CC3)c(=O)c3c(Nc4ccc(I)cc4F)n(C)c(=O)c(C)c32)c1 [Trametinib] (partner 0.02 µM)
Method in brief: as §1

DM3189 + Olaparib = compound: C1CN(CCN1)C2=CC=C(C=C2)C3=CN4C(=C(C=N4)C5=CC=NC6=CC=CC=C56)N=C3 [DM3189] + O=C(c1cc(Cc2n[nH]c(=O)c3ccccc23)ccc1F)N1CCN(C(=O)C2CC2)CC1 [Olaparib] (partner 8 µM)
Method in brief: as §1

Cell Line | relative viability (DM3189 + Navitoclax; first compound 0.08 µM) | relative viability (DM3189 + Navitoclax; first compound 0.253 µM) | relative viability (DM3189 + Navitoclax; first compound 0.8 µM) | relative viability (DM3189 + Navitoclax; first compound 2.53 µM) | relative viability (DM3189 + Tozasertib; first compound 0.08 µM) | relative viability (DM3189 + Tozasertib; first compound 0.253 µM) | relative viability (DM3189 + Tozasertib; first compound 0.8 µM) | relative viability (DM3189 + Tozasertib; first compound 2.53 µM) | relative viability (DM3189 + OSI-027; first compound 0.08 µM) | relative viability (DM3189 + OSI-027; first compound 0.253 µM) | relative viability (DM3189 + OSI-027; first compound 0.8 µM) | relative viability (DM3189 + OSI-027; first compound 2.53 µM) | relative viability (DM3189 + Trametinib; first compound 0.08 µM) | relative viability (DM3189 + Trametinib; first compound 0.253 µM) | relative viability (DM3189 + Trametinib; first compound 0.8 µM) | relative viability (DM3189 + Trametinib; first compound 2.53 µM) | relative viability (DM3189 + Olaparib; first compound 0.08 µM) | relative viability (DM3189 + Olaparib; first compound 0.253 µM) | relative viability (DM3189 + Olaparib; first compound 0.8 µM) | relative viability (DM3189 + Olaparib; first compound 2.53 µM)
201T | 1.17 | 1.21 | 1.18 | 1.23 | 0.998 | 0.913 | 1.02 | 0.781 | 0.88 | 0.763 | 0.512 | 0.747 | 0.729 | 0.743 | 0.728 | 0.734 | 0.822 | 0.882 | 0.859 | 0.765
A549 | 1.23 | 1.27 | 1.28 | 1.3 | – | – | – | – | – | – | – | – | – | – | – | – | 0.286 | 0.332 | 0.236 | 0.29
A-427 | 0.937 | 0.936 | 0.893 | 1.13 | 0.191 | 0.212 | 0.204 | 0.216 | 0.59 | 0.377 | 0.403 | 0.461 | 0.865 | 0.736 | 0.638 | 0.819 | 0.832 | 0.753 | 0.512 | 0.807
ABC-1 | – | – | – | – | 0.192 | 0.134 | 0.165 | 0.175 | 0.603 | 0.353 | 0.492 | 0.497 | – | – | – | – | 1.04 | 0.594 | 0.676 | 0.718
BEN | 0.448 | 0.0733 | 0.0662 | 0.0697 | 0.416 | 0.465 | 0.483 | 0.444 | 0.389 | 0.323 | 0.315 | 0.309 | 0.982 | 1.01 | 1.11 | 1.21 | 1.13 | 1.12 | 0.852 | 1.08
CAL-12T | 1.16 | 1.09 | 1.25 | 1.35 | 0.318 | 0.234 | 0.327 | 0.403 | 0.829 | 0.629 | 0.869 | 1 | 0.405 | 0.339 | 0.384 | 0.488 | 0.713 | 0.618 | 0.681 | 0.803
COR-L23 | 1.09 | 0.961 | 0.893 | 1 | 0.19 | 0.196 | 0.147 | 0.187 | 0.887 | 0.715 | 0.576 | 0.625 | 0.707 | 0.507 | 0.529 | 0.549 | 0.439 | 0.264 | 0.245 | 0.303
COR-L 105 | 0.861 | 0.675 | 0.729 | 0.816 | 0.434 | 0.371 | 0.32 | 0.358 | 1.21 | 0.928 | 0.789 | 0.615 | 0.467 | 0.488 | 0.471 | 0.504 | 0.855 | 0.772 | 0.545 | 0.812
ChaGo-K-1 | 1.22 | 0.971 | 1.1 | 0.825 | 0.235 | 0.228 | 0.222 | 0.233 | 0.594 | 0.607 | 0.383 | 0.589 | 0.937 | 0.876 | 0.919 | 0.936 | 0.48 | 0.393 | 0.369 | 0.439
IA-LM | 1.22 | 1.22 | 0.951 | 0.987 | – | – | – | – | – | – | – | – | – | – | – | – | 0.999 | 1.02 | 0.821 | 1.2
LCLC-103H | – | – | – | – | 0.502 | 0.453 | 0.461 | 0.408 | 0.513 | 0.435 | 0.442 | 0.41 | 0.748 | 0.653 | 0.685 | 0.681 | 0.78 | 0.713 | 0.736 | 0.75
NCI-H358 | – | – | – | – | 0.12 | 0.0936 | 0.102 | 0.11 | 1.02 | 0.722 | 0.782 | 0.488 | 0.133 | 0.111 | 0.129 | 0.129 | 0.7 | 0.539 | 0.56 | 0.395
NCI-H522 | – | – | – | – | 0.602 | 0.582 | 0.552 | 0.494 | 0.796 | 0.695 | 0.685 | 0.828 | 0.777 | 0.777 | 0.656 | 0.747 | 0.663 | 0.651 | 0.607 | 0.709
NCI-H650 | – | – | – | – | 0.713 | 0.667 | 0.623 | 0.696 | 0.578 | 0.496 | 0.483 | 0.502 | 0.988 | 0.826 | 0.749 | 0.877 | 0.355 | 0.428 | 0.347 | 0.329
NCI-H661 | – | – | – | – | 0.36 | 0.346 | 0.351 | 0.336 | 0.772 | 0.669 | 0.709 | 0.584 | 0.7 | 0.581 | 0.642 | 0.623 | 0.845 | 0.75 | 0.708 | 0.71
NCI-H1563 | – | – | – | – | – | – | – | – | 0.876 | 0.673 | 0.749 | 0.785 | – | – | – | – | – | – | – | –
NCI-H1703 | 1.08 | 1.05 | 1 | 0.709 | – | – | – | – | – | – | – | – | – | – | – | – | 0.397 | 0.466 | 0.429 | 0.446
NCI-H1792 | 0.584 | 0.601 | 0.443 | 0.23 | – | – | – | – | 0.585 | 0.703 | 0.661 | 0.839 | 0.538 | 0.482 | 0.438 | 0.62 | 0.647 | 0.354 | 0.404 | 0.38
SW 900 | – | – | – | – | 0.604 | 0.509 | 0.446 | 0.437 | 0.618 | 0.544 | 0.584 | 0.606 | 0.818 | – | 0.832 | 0.941 | 0.801 | – | 0.886 | 0.897
